# Data reported in patent US20220000969A1, “COMBINATIONS OF LYSOBACTIN AND AMINOGLYCOSIDES AGAINST DISEASES CAUSED BY GRAM-POSITIVE AND GRAM-NEGATIVE BACTERIA IN NON-HUMAN ANIMALS” (Bayer Animal Health GmbH, priority 2017, published 2022).
# Starred links: 1 amine or outer side, 2 acyl side, 3 side chain; linkers in the order of their positions; H or OH if unused. Positions of bridges follow the written chain, without caps; N, C: chain ends. Non-standard residues stand in square brackets, D forms with d. Residues, ends and D or L forms follow the SMILES beside them. Phe(3R-OH) = O=C([C@@H](N[*:1])[C@H](O[*:3])c1ccccc1)[*:2]; Asn(3S-OH) = NC(=O)[C@@H](O)[C@H](N)C(=O)O; Leu(3R-OH) = CC(C)[C@@H](O)[C@H](N)C(=O)O; aThr = C[C@H](O)[C@H](N)C(=O)O
# Tests used:
# [1] = system: Staphylococcus aureus ATCC 29740; test: in vitro kill kinetics of lysobactin alone in milk; type: cell-based; details: lysobactin 4-64 μg/mL, at 24 h
# Method: (§1) In order to assess the ability of lysobactin to kill bacteria in milk, flasks containing different concentrations of lysobactin in store-bought full-fat milk were inoculated with 1-2×10^6 colony forming units/ml of a representative strain of either Staphyloccus aureus or Streptococcus uberis. The flasks were incubated for 24-48 hours in a shaking water bath at 35+/−2° C., and viable bacterial counts in each flask were determined at several time-points by diluting and plating samples on agar plates. A reduction of the number of viable bacteria in the initial inoculum by at least 99.9% is defined as bactericidal activity.
# (§2) The kill kinetics of lysobactin against Staphylococcus aureus ATCC 29740 and Streptococcus uberis ATCC 27958 in milk were determined for concentrations of lysobactin of 4, 8, 16, 32 and 64 μg/mL. Results are depicted in FIG. 1 (CFU: colony forming units). A cidality at 24 h and 48 h, respectively, can be postulated for S. aureus and S. uberis.
# [2] = system: Streptococcus uberis ATCC 27958; test: in vitro kill kinetics of lysobactin alone in milk; type: cell-based; details: lysobactin 4-64 μg/mL, at 48 h
# Method: as §1, §2
# S. aureus = test: resistance development during serial passaging; type: cell-based, Staphylococcus aureus; details: serial passaging at sub-MIC concentrations over 33 days
# Method: (§3) The appearance of MIC changes during constant exposure of bacteria to sub-MIC concentrations of lysobactin was assessed by serial passaging experiments. On the first day the MICs of S. aureus and S. uberis were assessed by microbroth dilution MIC methodology as described by the Clinical and Laboratory Standards Institute (CLSI). Each day for the following 33 consecutive days, bacteria from the well containing the highest concentrations allowing full growth were collected and used to inoculate new 96-well plates and to assess the MIC during constant exposure to lysobactin. The MIC obtained on each day was plotted over time. Rifampicin, which is known to result in quick changes of the MIC, was used as positive control.
# S. uberis = test: resistance development during serial passaging; type: cell-based, Streptococcus uberis; details: serial passaging at sub-MIC concentrations over 33 days
# Method: as §3
# Staphylococcus aureus [3] = test: Staphylococcus aureus acute mouse mastitis model; type: in vivo, lactating CD-1 mice
# Method: The efficacy of lysobactin (formulated in a hydrogel at pH 4.7) was tested in a Staphylococcus aureus acute mouse mastitis model established at the University of Sherbrooke, Canada (Brouillette et al, Vet. Microbiol. (2004) 4:253-262), that is hereby incorporated by reference. Both the abdominal mammary glands (L4 and R4) of lactating CD-1 mice were intramammarily infected with 100 CFU (colony forming units) of S. aureus. The mice were treated intramammarily with lysobactin four hours after infection. Each treatment group contained at least 3 mice (6 quarters), 14 hours later (18 hours after inoculation) mice were sacrificed, mammary glands were harvested and the CFU content evaluated by plating 10-fold serial dilutions of mammary gland homogenates. The CFU content was expressed as log10 count. The detection limit was 200 CFU/g of gland. Glands with less than 200 CFU/g were regarded as cleared. The efficacy of lysobactin and neomycin trisulfate, either alone or in combination, was tested in a Staphylococcus aureus acute mouse mastitis model established at the University of Sherbrooke, Canada (Brouillette et al, Vet. Microbiol. (2004) 4:253-262), as described in example 5. Samples were formulated in paraffin.
# [4] = system: Streptococcus uberis (ATCC 27958); test: acute mouse mastitis model with S. uberis (example 14); type: in vivo, lactating CD-1 mice; details: paraffin formulation, 18 h after infection
# Method: Twenty-three lactating CD-1 mice were experimentally infected 10-15 days after birth of the offspring with the mastitis pathogen Streptococcus uberis (ATCC 27958) on the left and right fourth mammary gland. Four hours after infection the animals were treated intrammarily with the test items. The study comprised four treatment groups with four mice each and a control group with seven mice. The mice of the treatment groups received paraffin formulations of lysobactin at 15 μg/gland or neomycin trisulfate at 1600 μg/gland, or two combinations of both with lysobactin at 15 μg plus neomycin trisulfate at 800 μg or 1600 μg per gland. Eighteen hours after infection the mice were killed and the mammary glands were removed and bacterial CFU were evaluated microbiologically.
# Staphylococcus aureus [5] = test: dairy cow udder infection model with S. aureus (example 15); type: in vivo, lactating dairy cows; details: for microbiological cure rate: miglyol based suspension, two times; for SCC recovery rate: counts below 200.000 cells per mL
# Description: Fifteen healthy lactating dairy cows were experimentally infected with the mastitis pathogen Staphylococcus aureus on all four udder quarters.
# Additionally a fourth group of udder quarters received miglyol as negative control. Treatments were randomly assigned to 60 udder quarters in total. Only udder quarters that were bacteriologically positive for the challenge organism immediately prior to treatment (n=49) were eligible for assessment of microbiological and clinical cure. The diseased quarters were treated with these intramammary formulations two times with an interval of 24 hours in between. Udders were clinically examined and milk samples were taken before treatment and several times after that until three weeks after the second administration by study personnel blinded to treatment.
# Milk was inspected visually for deviation in its consistency and samples were evaluated for presence of the challenge organism and for somatic cell count to confirm the diagnosis mastitis. Diseased udder quarters were considered microbiologically cured when Staphylococcus aureus found in milk samples shortly before treatment could not be isolated from any milk sample taken within the time period between the third and the twenty-first day after the second treatment. Clinical cure was achieved when the local symptoms of mastitis had completely disappeared, and recovery of somatic cell counts (SCC) as parameter of udder inflammation was attained when all counts remained below 200.000 cells per mL of milk in the period mentioned above.
# E. coli P4:032 = test: in vitro kill kinetics of combinations in milk (synergy); type: cell-based; details: after 8 h, 32 μg/ml neomycin alone
# Method: The flasks were incubated for 24-48 hours in a shaking water bath at 35+/−2° C., and viable bacterial counts in each flask were determined at several time-points by diluting and plating samples on agar plates.
# The kill kinetics of lysobactin and neomycin, either alone or in combination, against E. coli P4:032 in milk were determined for concentration ratio of lysobactin:neomycin of […] (256 μg/ml lysobactin and 32 μg/ml neomycin).
# [6] = Day 3 after second treatment, lysobactin 50 mg
# [7] = Day 21 after second treatment, lysobactin 50 mg
# [8] = Day 3 after second treatment, neomycin trisulfate 400 mg
# [9] = Day 21 after second treatment, neomycin trisulfate 400 mg
molecule,measurement,setting,value
CC[C@H](C)[C@@H]1NC(=O)[C@@H](CCCNC(=N)N)NC(=O)[C@H](CC(C)C)NC(=O)[C@H]([C@H](O)C(C)C)NC(=O)[C@@H](NC(=O)[C@H](CC(C)C)NC(=O)[C@H](N)CC(C)C)[C@@H](c2ccccc2)OC(=O)[C@H](CO)NC(=O)[C@H]([C@H](O)C(N)=O)NC(=O)CNC(=O)[C@H]([C@H](C)O)NC1=O [lysobactin] (H-[dL]L[Phe(3R-OH)][Leu(3R-OH)]L[dR]I[aThr]G[Asn(3S-OH)]S; ester 3-C),cidality (reduction of viable bacteria by at least 99.9%),[1],cidality
same,cidality (reduction of viable bacteria by at least 99.9%),[2],cidality
same,MIC change during constant exposure,S. aureus,remain constant
same,MIC change during constant exposure,S. uberis,remain constant
same,reduction of median CFU content,"Staphylococcus aureus [3]; 50 μg lysobactin intramammary, formulated in paraffin",ca. 2.7 log10
same,reduction of median CFU content,"Staphylococcus aureus [3]; 50 μg lysobactin intramammary, hydrogel pH 4.7, 4 h after infection, glands 18 h after inoculation",ca. 4 log10
same,elimination of infection from glands,"Staphylococcus aureus [3]; 400 μg lysobactin intramammary, hydrogel pH 4.7, cleared = less than 200 CFU/g",eliminates the infection from all infected glands
same,reduction of mean CFU content,[4]; 15 μg lysobactin per gland,ca. 2.6 log10
same,local clinical cure rate,Staphylococcus aureus [5]; [6],71%
same,microbiological cure rate,Staphylococcus aureus [5]; [6],71%
same,SCC recovery rate,Staphylococcus aureus [5]; [6],35%
same,local clinical cure rate,Staphylococcus aureus [5]; [7],71%
same,microbiological cure rate,Staphylococcus aureus [5]; [7],14%
same,SCC recovery rate,Staphylococcus aureus [5]; [7],36%
"NC[C@@H]1O[C@H](O[C@@H]2[C@@H](CO)OC(O[C@@H]3[C@@H](O)[C@H](N)C[C@H](N)[C@H]3OC3O[C@H](CN)[C@@H](O)[C@H](O)[C@H]3N)[C@@H]2O)[C@H](N)[C@@H](O)[C@@H]1O (some centres unmarked) [neomycin trisulfate, reference compound]",reduction of median CFU content,"Staphylococcus aureus [3]; 1600 μg neomycin trisulfate intramammary, formulated in paraffin",~2.5 log10
same,reduction of mean CFU content,[4]; 1600 μg neomycin trisulfate per gland,~1.5 log10
same,local clinical cure rate,Staphylococcus aureus [5]; [8],67%
same,microbiological cure rate,Staphylococcus aureus [5]; [8],100%
same,SCC recovery rate,Staphylococcus aureus [5]; [8],17%
same,local clinical cure rate,Staphylococcus aureus [5]; [9],100%
same,microbiological cure rate,Staphylococcus aureus [5]; [9],42%
same,SCC recovery rate,Staphylococcus aureus [5]; [9],50%
neomycin,bacterial cell count,E. coli P4:032,below the detection limit
